# Measured values as given in ChEMBL document CHEMBL4680161, “Design and synthesis of α-naphthoflavone chimera derivatives able to eliminate cytochrome P450 (CYP)1B1-mediated drug resistance via targeted CYP1B1 degradation” (Eur J Med Chem, 2020).
# Assays:
# [1] = molecular target: von Hippel-Lindau disease tumor suppressor/Cytochrome P450 1B1 (Homo sapiens, UniProt Q16678+P40337); assay: Protac activity at E3 ubiquitin ligase/CYP1B1 (unknown origin) expressed in human DU145 cells assessed as induction of CYP1B1 degradation by immunoblotting analysis; format: cell-based; details: du-145
# Cytochrome P450 1A2 = molecular target: T1, Cytochrome P450 1A2 (Homo sapiens, UniProt P05177); assay: Inhibition of recombinant human CYP1A2 expressed in baculovirus infected insect cells using 7-ethoxyresorufin as substrate preincubated for 5 mins followed by NADPH addition and measured after 35 mins by EROD assay; format: ADME
# T1 sequence (P05177 whole entry): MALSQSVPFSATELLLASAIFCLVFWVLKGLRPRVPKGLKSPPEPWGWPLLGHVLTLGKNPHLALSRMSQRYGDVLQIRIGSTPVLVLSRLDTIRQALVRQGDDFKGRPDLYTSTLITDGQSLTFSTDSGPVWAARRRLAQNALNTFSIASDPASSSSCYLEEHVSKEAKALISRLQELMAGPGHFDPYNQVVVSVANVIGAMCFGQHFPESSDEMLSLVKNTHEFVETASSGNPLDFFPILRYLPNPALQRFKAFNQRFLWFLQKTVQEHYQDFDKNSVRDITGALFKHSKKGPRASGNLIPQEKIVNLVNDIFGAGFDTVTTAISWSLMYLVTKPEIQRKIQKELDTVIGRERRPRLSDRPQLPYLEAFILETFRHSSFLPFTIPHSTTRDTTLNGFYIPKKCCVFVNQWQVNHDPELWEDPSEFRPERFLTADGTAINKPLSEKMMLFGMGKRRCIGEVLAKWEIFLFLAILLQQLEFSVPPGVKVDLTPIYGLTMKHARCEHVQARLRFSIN
# Homo sapiens = species: Homo sapiens; assay: Selectivity ratio IC50 for inhibition of recombinant human CYP1A2 to inhibition of recombinant human CYP1B1
# Cytochrome P450 1B1 = molecular target: T2, Cytochrome P450 1B1 (Homo sapiens, UniProt Q16678); assay: Inhibition of recombinant human CYP1B1 expressed in baculovirus infected insect cells using 7-ethoxyresorufin as substrate preincubated for 5 mins followed by NADPH addition and measured after 15 mins by EROD assay
# T2 sequence (Q16678 whole entry): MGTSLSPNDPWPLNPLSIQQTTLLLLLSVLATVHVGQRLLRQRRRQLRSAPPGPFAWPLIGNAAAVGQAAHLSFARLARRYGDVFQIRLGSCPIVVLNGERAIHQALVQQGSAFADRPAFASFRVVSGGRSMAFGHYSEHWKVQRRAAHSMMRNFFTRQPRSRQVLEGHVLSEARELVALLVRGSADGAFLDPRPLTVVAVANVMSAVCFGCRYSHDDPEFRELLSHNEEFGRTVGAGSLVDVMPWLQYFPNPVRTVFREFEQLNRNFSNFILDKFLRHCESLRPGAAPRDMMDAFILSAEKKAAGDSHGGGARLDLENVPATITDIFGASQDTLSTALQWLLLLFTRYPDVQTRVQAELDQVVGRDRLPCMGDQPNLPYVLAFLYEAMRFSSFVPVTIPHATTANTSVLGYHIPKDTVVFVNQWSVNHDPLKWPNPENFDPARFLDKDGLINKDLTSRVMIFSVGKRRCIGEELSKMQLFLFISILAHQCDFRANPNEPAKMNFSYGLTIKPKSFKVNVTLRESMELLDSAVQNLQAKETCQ
# [2] = Selectivity ratio of IC50 for cytotoxicity against human DU-145 cells over expressing CYP1B1 to cytotoxicity against human DU-145 cells; format: functional
# DU-145 [3] = assay: Cytotoxicity against human DU-145 cells over expressing CYP1B1 assessed as reduction in cell viability after 48 hrs by MTT assay; format: functional, cell-based; details: DU-145, 48 h
# DU-145 [4] = assay: Cytotoxicity against human DU-145 cells assessed as reduction in cell viability after 48 hrs by MTT assay; format: functional, cell-based; details: DU-145, 48 h
# von Hippel-Lindau disease tumor suppressor/Cytochrome P450 1B1, sequence (P40337 whole entry, one chain of several): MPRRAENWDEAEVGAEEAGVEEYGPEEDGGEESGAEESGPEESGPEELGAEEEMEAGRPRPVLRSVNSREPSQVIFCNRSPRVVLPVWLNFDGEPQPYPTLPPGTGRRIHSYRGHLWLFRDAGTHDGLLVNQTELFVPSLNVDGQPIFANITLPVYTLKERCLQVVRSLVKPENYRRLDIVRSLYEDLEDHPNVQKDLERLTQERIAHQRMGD
SMILES,Activity [1],IC50 (Cytochrome P450 1A2) [nM],IC50 (Cytochrome P450 1B1) [nM],Ratio IC50 (Homo sapiens),Ratio IC50 [2],IC50 (DU-145 [3]) [nM],IC50 (DU-145 [4]) [nM]
COc1ccc(OC)c2c1c(OC)cc1c(=O)cc(-c3ccc(-c4cn(CCOc5cccc6c5C(=O)N(C5CCC(=O)NC5=O)C6=O)nn4)cc3)oc12 (configuration not stated),Active,9030,101,89.2,,,
C#Cc1ccc(-c2cc(=O)c3cc(OC)c4c(OC)ccc(OC)c4c3o2)cc1,Not Active,885,2.1,422,,,
COc1ccc(OC)c2c1c(OC)cc1c(=O)cc(-c3ccc(Cl)cc3)oc12,,37.2,0.6,62,,,
CC(=O)O[C@@]12CO[C@@H]1C[C@H](O)[C@@]1(C)C(=O)[C@H](O)C3=C(C)[C@@H](OC(=O)[C@H](O)[C@@H](NC(=O)OC(C)(C)C)c4ccccc4)C[C@@](O)([C@@H](OC(=O)c4ccccc4)[C@H]21)C3(C)C [DOCETAXEL ANHYDROUS],,,,,9,43.2,4.95
COc1ccc(OC)c2c1c(OC)cc1c(=O)cc(-c3ccccc3)oc12,,25.8,1.4,18.4,,,
[N-]=[N+]=NCCCCCCOc1cccc2c1C(=O)N(C1CCC(=O)NC1=O)C2=O (configuration not stated),,> 10000,> 10000,,,,

# More lines, main results first:
Activity [1],IC50 (Cytochrome P450 1A2) [nM],IC50 (Cytochrome P450 1B1) [nM],SMILES,Ratio IC50 (Homo sapiens),Ratio IC50 [2],IC50 (DU-145 [3]) [nM],IC50 (DU-145 [4]) [nM]
,> 10000,> 10000,[N-]=[N+]=NCCOc1cccc2c1C(=O)N(C1CCC(=O)NC1=O)C2=O (configuration not stated),,,,
Active,8570,153,COc1ccc(OC)c2c1c(OC)cc1c(=O)cc(-c3ccc(-c4cn(CCCCCOc5cccc6c5C(=O)N(C5CCC(=O)NC5=O)C6=O)nn4)cc3)oc12 (configuration not stated),56.1,,,
Not Active,> 10000,> 10000,[N-]=[N+]=NCCCCCCCCOc1cccc2c1C(=O)N(C1CCC(=O)NC1=O)C2=O (configuration not stated),,,,
Dose-dependent effect and Tde,9840,95.1,COc1ccc(OC)c2c1c(OC)cc1c(=O)cc(-c3ccc(-c4cn(CCCCCCOc5cccc6c5C(=O)N(C5CCC(=O)NC5=O)C6=O)nn4)cc3)oc12 (configuration not stated),104,,,
Not Active,7460,166,COc1ccc(OC)c2c1c(OC)cc1c(=O)cc(-c3ccc(-c4cn(CCCCCCCCOc5cccc6c5C(=O)N(C5CCC(=O)NC5=O)C6=O)nn4)cc3)oc12 (configuration not stated),44.8,,,
Not Active,> 10000,> 10000,[N-]=[N+]=NCCCCCOc1cccc2c1C(=O)N(C1CCC(=O)NC1=O)C2=O (configuration not stated),,,,
,47.8,0.4,COc1ccc(OC)c2c1c(OC)cc1c(=O)cc(-c3ccc(-c4c[nH]nn4)cc3)oc12,120,,,
